Columns and labels:
Assay in all cases: normalised response (% of control), CellTox Green; higher = less cell death (100 = DMSO, 0 = benzethonium chloride kill control)
Conditions in all cases: incubation time: 72 h
HCC1599 = test system: HCC1599
In short: (§1)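 Breast cancer cell lines, seeded at 20 µl suspension per well, were incubated for 72 h in 384-well plates containing compound at 5 concentrations. These concentrations rose in 10-fold steps over a 10,000-fold range set for each compound. CellTox Green fluorescence (485/520 nm) was read, then CellTiter-Glo luminescence after 10 min at room temperature, and each plate was normalised to 0.1 % DMSO (100) and a positive kill control (0). Values are normalised signals, each at one concentration.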

MCF-10A = test system: MCF-10A
In short: as §1

MFM-223 = test system: MFM-223
In short: as §1

CAL-148 = test system: CAL-148
In short: as §1

MDA-MB-436 = test system: MDA-MB-436
In short: as §1

CAL-85-1 = test system: CAL-85-1
In short: as §1

Hs578T = test system: Hs578T
In short: as §1

DU-4475 = test system: DU-4475
In short: as §1

CAL-51 = test system: CAL-51
In short: as §1

HCC1143 = test system: HCC1143
In short: as §1

MDA-MB-453 = test system: MDA-MB-453
In short: as §1

SMILES | normalised response (HCC1599) [%] | normalised response (MCF-10A) [%] | normalised response (MFM-223) [%] | normalised response (CAL-148) [%] | normalised response (MDA-MB-436) [%] | normalised response (CAL-85-1) [%] | normalised response (Hs578T) [%] | normalised response (DU-4475) [%] | normalised response (CAL-51) [%] | normalised response (HCC1143) [%] | normalised response (MDA-MB-453) [%]
C[C@@H]1C=C2C(=O)O[C@@H]3CC[C@H](C1)[C@]23O [Galiellalactone] (5000 nM) | 105 | 82.2 | 101 | 104 | 96.5 | 106 | 112 | 106 | 101 | 105 | 103
CS(=O)(=O)OCCCCOS(C)(=O)=O [Busulfan] (100000 nM) | 108 | 95.5 | 84.1 | 81.5 | 95.6 | 77.6 | 123 | 97.4 | 106 | 94.9 | 97.6
CCCC(CCC)C(=O)O [Valproic acid] (10000 nM) | 93.2 | 107 | 101 | 102 | 117 | 111 | 100 | 104 | 95.7 | 94.8 | 107
C#Cc1cccc(Nc2ncnc3cc(OC)c(OCCCCCCC(=O)NO)cc23)c1 [CUDC-101] (1000 nM) | 82.2 | 100 | 85 | 74.4 | 72.7 | -33 | 98.8 | 81.3 | 86.1 | 85.1 | 65.4
COc1cccc2c1C(=O)c1c(O)c3c(c(O)c1C2=O)C[C@@](O)(C(C)=O)C[C@@H]3O[C@H]1C[C@H](N)[C@H](O)[C@H](C)O1 [Daunorubicin] (1000 nM) | 138 | 106 | 101 | 75 | 47.9 | 76.2 | 144 | 104 | 42.6 | 100 | 120
CCOc1cc2ncc(C#N)c(Nc3ccc(OCc4ccccn4)c(Cl)c3)c2cc1NC(=O)/C=C/CN(C)C [Neratinib] (100 nM) | 107 | 114 | 103 | 100 | 97.8 | 93.7 | 90.3 | 106 | 115 | 115 | 110
C[C@@H]1C=C2C(=O)O[C@@H]3CC[C@H](C1)[C@]23O [Galiellalactone] (50000 nM) | 114 | 102 | 106 | 103 | 105 | 46.6 | 122 | 108 | 96.6 | 112 | 107
CN1CCN(c2ccc3nc(-c4c(N)c5c(F)cccc5[nH]c4=O)[nH]c3c2)CC1 [Dovitinib] (1000 nM) | 106 | 104 | 102 | 103 | 95.8 | 97.8 | 80.1 | 98.6 | 105 | 104 | 101
CC(=O)O[C@H]1C(=O)[C@@]2(C)[C@H]([C@H](OC(=O)c3ccccc3)[C@]3(O)C[C@H](OC(=O)[C@H](O)[C@@H](NC(=O)c4ccccc4)c4ccccc4)C(C)=C1C3(C)C)[C@]1(OC(C)=O)CO[C@@H]1C[C@@H]2O [Paclitaxel] (100 nM) | 82.7 | -6.43 | 51.4 | 66.4 | 62.8 | 21.5 | 48.5 | 90.4 | 25.6 | 99.6 | 98.7
O=c1[nH]cc(F)c(=O)[nH]1 [Fluorouracil] (10000 nM) | 95.2 | 75.7 | 103 | 92.9 | 75.7 | 75 | 118 | 99.2 | 120 | 103 | 100
O=c1[nH]cc(F)c(=O)[nH]1 [Fluorouracil] (1000 nM) | 101 | 111 | 102 | 98.5 | 101 | 101 | 60.9 | 105 | 114 | 110 | 87.5
CCS(=O)(=O)c1cccc(-c2cc(C(=O)NC3CCN(C)CC3)c(C)c3[nH]c4ncc(C)cc4c23)c1 [TAK-901] (100 nM) | 99.7 | 107 | 94 | 42 | 96.8 | 97.9 | 76.4 | 100 | 53.8 | 118 | 107
CC(C)C[C@H](NC(=O)[C@H](Cc1ccccc1)NC(=O)c1cnccn1)B(O)O [Bortezomib] (100 nM) | 87.5 | 74 | 39.2 | -26.8 | 28.8 | -7.21 | 15.4 | 89.7 | -29 | 83.5 | 92.7
COc1c(C)cnc(Cn2cnc3c(Cl)nc(N)nc32)c1C [BIIB021] (1000 nM) | 107 | 1.93 | 99.3 | 26.9 | 80.9 | 71.3 | 63.4 | 68.5 | 71.2 | 90.5 | 102
COC1=CC(c2cc3ccccc3[nH]2)=N/C1=C\c1[nH]c(C)cc1C [Obatoclax] (10000 nM) | 99.9 | 74.2 | 96.7 | 77.3 | 102 | 117 | 129 | 101 | -16.5 | 91.9 | 96.2
CC(C)(C)c1cc(NC(=O)Nc2ccc(-c3cn4c(n3)sc3cc(OCCN5CCOCC5)ccc34)cc2)no1 [Quizartinib] (100 nM) | 106 | 84.8 | 102 | 106 | 66.7 | 107 | 113 | 101 | 117 | 98.3 | 101
COC1=C2C[C@@H](C)C[C@H](OC)[C@H](O)[C@@H](C)/C=C(\C)[C@H](OC(N)=O)[C@@H](OC)/C=C\C=C(/C)C(=O)NC(=CC1=O)C2=O [Geldanamycin] (10000 nM) | 99.2 | -24.5 | 44.1 | 54.8 | 80.8 | 3.38 | 98 | 68.2 | 39.3 | 99.5 | 82
CCOc1cc2ncc(C#N)c(Nc3ccc(OCc4ccccn4)c(Cl)c3)c2cc1NC(=O)/C=C/CN(C)C [Neratinib] (1000 nM) | 106 | 115 | 100 | 77.3 | 104 | 54 | 120 | 94.7 | 95.8 | 105 | 99.9
C[C@@]1(C(=O)Nc2ccc(F)nc2)CCCN1c1nc(Nc2cc(C3CC3)n[nH]2)c2cccn2n1 (1000 nM) | 97.6 | 80.4 | 76.7 | 88.8 | 90.8 | 95 | 110 | 90.6 | 49.5 | 68.5 | 104
CCS(=O)(=O)c1cccc(-c2cc(C(=O)NC3CCN(C)CC3)c(C)c3[nH]c4ncc(C)cc4c23)c1 [TAK-901] (1000 nM) | 97.1 | 90 | 85 | 84.6 | 69.2 | 58.9 | 106 | 97 | 36.5 | 87.8 | 105
